# According to patent EP4599821A1, “CANNABIDIOL-COMPRISING LIPOSOMES” (Novozymatic BV, priority 2024, dated 2025):
# Experiments:
# [1] = Visual appearance of diluted reference and intravenous CBD formulations; type: physicochemical
# Excerpt: As a control for the CBD granules, a commercial product was used, namely Epidyolex.
# When comparing the two solutions, the second approach qualified as a suitable injectable formulation for the rat study.
# [2] = cited from earlier work
smiles,measurement,setting,value
"C=C(C)[C@@H]1CCC(C)=C[C@H]1c1c(O)cc(CCCCC)cc1O [CBD, cannabidiol]",visual appearance of intravenous formulation,"[1]; first approach: 50 mg/ml in 95% ethanol, diluted to 1 mg/ml in 96% saline and 2% polysorbate 80",formation of fat drops
same,visual appearance of intravenous formulation,"[1]; second approach: 50 mg/ml in 1:1 ethanol: polysorbate 80, diluted to 1 mg/ml in 98% saline, 10 or 20 min rest",no fat drops and no sediment were observed
same,Cmax (maximum concentration),[2]; 20 mg of orally delivered CBD/THC sprayed onto a gelatin capsule,2.4 ng/mL
same,Time to peak plasma concentration,[2]; oral delivery,1 to 4 h
